Measured values as given in ChEMBL document CHEMBL3608294, “Epoxylathyrol Derivatives: Modulation of ABCB1-Mediated Multidrug Resistance in Human Colon Adenocarcinoma and Mouse T-Lymphoma Cells” (J Nat Prod, 2015).

Legend:
[1] = Selectivity index, ratio of cytotoxic IC50 for chemosensitive human COLO205 cells to cytotoxic IC50 for multidrug resistant human COLO320 cells; format: functional, COLO 205
[2] = biological target: T1, ATP-dependent translocase ABCB1 (Homo sapiens, UniProt P08183); assay: Inhibition of human ABCB1 expressed in mouse L5178Y cells assessed as fluorescence activity ratio at 2 uM incubated for 10 mins by flow cytometry based rhodamine-123 accumulation assay (reference value: 0.78); format: cell-based
T1 sequence (P08183 whole entry): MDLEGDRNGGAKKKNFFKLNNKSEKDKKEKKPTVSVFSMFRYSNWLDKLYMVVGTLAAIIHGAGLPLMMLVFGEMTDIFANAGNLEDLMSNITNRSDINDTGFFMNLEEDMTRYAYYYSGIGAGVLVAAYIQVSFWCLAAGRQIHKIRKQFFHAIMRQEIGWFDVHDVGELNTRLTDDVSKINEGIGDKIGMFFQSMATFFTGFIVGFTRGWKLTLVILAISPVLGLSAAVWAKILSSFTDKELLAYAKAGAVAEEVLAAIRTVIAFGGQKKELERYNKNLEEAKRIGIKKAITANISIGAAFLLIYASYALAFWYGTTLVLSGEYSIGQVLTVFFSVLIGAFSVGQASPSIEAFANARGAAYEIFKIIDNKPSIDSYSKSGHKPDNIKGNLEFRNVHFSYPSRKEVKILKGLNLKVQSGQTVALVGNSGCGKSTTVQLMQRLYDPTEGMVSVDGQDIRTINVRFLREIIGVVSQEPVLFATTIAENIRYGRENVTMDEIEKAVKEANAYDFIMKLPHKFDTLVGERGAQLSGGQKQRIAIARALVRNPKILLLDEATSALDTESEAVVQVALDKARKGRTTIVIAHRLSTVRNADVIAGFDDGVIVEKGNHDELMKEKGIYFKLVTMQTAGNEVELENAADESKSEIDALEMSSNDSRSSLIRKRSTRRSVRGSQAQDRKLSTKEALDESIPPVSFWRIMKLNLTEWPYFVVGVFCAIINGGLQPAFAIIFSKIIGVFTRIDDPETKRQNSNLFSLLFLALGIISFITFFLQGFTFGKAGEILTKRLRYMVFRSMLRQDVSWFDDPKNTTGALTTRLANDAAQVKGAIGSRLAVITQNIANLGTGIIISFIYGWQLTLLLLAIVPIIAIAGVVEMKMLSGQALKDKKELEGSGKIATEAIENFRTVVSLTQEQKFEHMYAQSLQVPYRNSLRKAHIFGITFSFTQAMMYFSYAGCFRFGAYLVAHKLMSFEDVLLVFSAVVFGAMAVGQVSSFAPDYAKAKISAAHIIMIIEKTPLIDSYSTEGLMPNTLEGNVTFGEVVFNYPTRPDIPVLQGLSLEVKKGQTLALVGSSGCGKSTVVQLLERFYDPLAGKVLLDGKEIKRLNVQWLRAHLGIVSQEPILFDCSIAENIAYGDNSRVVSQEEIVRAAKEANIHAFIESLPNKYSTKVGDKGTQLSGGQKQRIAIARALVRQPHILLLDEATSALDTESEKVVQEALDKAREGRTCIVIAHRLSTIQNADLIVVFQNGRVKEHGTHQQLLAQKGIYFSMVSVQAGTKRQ

[3] = biological target: T1, ATP-dependent translocase ABCB1; assay: Inhibition of human ABCB1 expressed in mouse L5178Y cells assessed as potentiation of 2 mg/ml doxorubicin-induced cytotoxicty by measuring combination index at 5:1 compound to doxorubicin ratio incubated for 48 hrs by MTT assay; format: cell-based
[4] = tested on: L5178Y; assay: Antiproliferative activity against chemosensitive wild type parental mouse L5178Y cells incubated for 72 hrs by MTT assay; format: functional, cell-based
[5] = tested on: L5178Y; assay: Antiproliferative activity against human ABCB1 expressing mouse L5178Y cells incubated for 72 hrs by MTT assay; format: functional, cell-based
[6] = biological target: T1, ATP-dependent translocase ABCB1; assay: Inhibition of human ABCB1 expressed in mouse L5178Y cells assessed as fluorescence activity ratio at 20 uM incubated for 10 mins by flow cytometry based rhodamine-123 accumulation assay (reference value: 0.78); format: cell-based
[7] = tested on: L5178Y; assay: Cytotoxicity against human ABCB1 expressing mouse L5178Y cells incubated for 24 hrs by MTT assay; format: functional, cell-based
[8] = tested on: L5178Y; assay: Cytotoxicity against chemosensitive wild type parental mouse L5178Y cells incubated for 24 hrs by MTT assay; format: functional, cell-based
[9] = Antiproliferative activity against multidrug resistant human COLO320 cells incubated for 72 hrs by MTT assay; format: functional; conditions: COLO 320, 72 h
[10] = Cytotoxicity against multidrug resistant human COLO320 cells incubated for 24 hrs by MTT assay; format: functional, cell-based; conditions: COLO 320, 24 h
[11] = biological target: T1, ATP-dependent translocase ABCB1; assay: Inhibition of ABCB1 in multidrug resistant human COLO320 cells assessed as fluorescence activity ratio at 20 uM incubated for 10 mins by flow cytometry based rhodamine-123 accumulation assay (reference value: 0.62)
[12] = tested on: COLO 205; assay: Cytotoxicity against chemosensitive human COLO205 cells incubated for 24 hrs by MTT assay; format: functional, cell-based; conditions: COLO 205, 24 h
[13] = biological target: T1, ATP-dependent translocase ABCB1; assay: Inhibition of ABCB1 in multidrug resistant human COLO320 cells assessed as fluorescence activity ratio at 2 uM incubated for 10 mins by flow cytometry based rhodamine-123 accumulation assay (reference value: 0.62)
[14] = Antiproliferative activity against chemosensitive human COLO205 cells incubated for 72 hrs by MTT assay; format: functional, cell-based; conditions: COLO 205, 72 h
[15] = tested on: L5178Y; assay: Selectivity index, ratio of antiproliferative IC50 for wild type parental mouse L5178Y cells to antiproliferative IC50 for human ABCB1 expressing mouse L5178Y cells; format: functional
[16] = Selectivity index, ratio of antiproliferative IC50 for chemosensitive human COLO205 cells to antiproliferative IC50 for multidrug resistant human COLO320 cells; format: functional, COLO 205

Structure (SMILES) | Ratio IC50 [1] | Ratio [2] | CI [3] | IC50 [4] | IC50 [5] | Ratio [6] | IC50 [7] | IC50 [8] | IC50 [9] | IC50 [10] | Ratio [11] | IC50 [12] | Ratio [13] | IC50 [14] | Ratio IC50 [15] | Ratio IC50 [16]
CC(=O)O[C@@H]1[C@@H]2[C@@H](OC(C)=O)[C@](C)(OC(C)=O)CC[C@H]3[C@@H](/C=C(\C)[C@H](OC(C)=O)[C@@]2(OC(C)=O)C[C@@H]1C)C3(C)C | 0.96 | 11.37 | 0.205 | > 100 µM | > 100 µM | 51.34 | > 100 µM | > 100 µM | > 100 µM | 51.4 µM | 5.98 | 49.1 µM | 2.76 | > 100 µM | – | –
C/C1=C\[C@@H]2[C@H](CC[C@]3(CO3)[C@H](OC(=O)c3ccc(-c4ccccc4)cc3)[C@H]3[C@@H](OC(=O)c4ccc(-c5ccccc5)cc4)[C@@H](C)C[C@]3(O)C1=O)C2(C)C | – | 22.82 | – | 74.3 µM | > 100 µM | 30.97 | > 100 µM | > 100 µM | > 100 µM | > 100 µM | 2.64 | > 100 µM | 2.7 | > 100 µM | <0.74 | –
C/C1=C\[C@@H]2[C@H](CC[C@]3(CO3)[C@H](O)[C@H]3[C@@H](O)[C@@H](C)C[C@]3(O)C1=O)C2(C)C | – | 1.15 | – | > 100 µM | > 100 µM | 1.49 | > 100 µM | > 100 µM | > 100 µM | > 100 µM | 1.05 | > 100 µM | 1.02 | > 100 µM | – | –
C/C1=C\[C@@H]2[C@H](CC[C@]3(CO3)[C@H](OC(=O)N3CCOCC3)[C@H]3[C@@H](OC(=O)N4CCOCC4)[C@@H](C)C[C@]3(O)C1=O)C2(C)C | – | 1.22 | – | > 100 µM | > 100 µM | 1.38 | > 100 µM | > 100 µM | > 100 µM | > 100 µM | 1.42 | > 100 µM | 1.09 | > 100 µM | – | –
CO[C@H]1[C@@H]2[C@H](CC[C@]3(CO)O[C@@H]3[C@H]3[C@@H](O)[C@@H](C)C[C@]3(O)C(=O)[C@@H]1C)C2(C)C | – | 1.22 | – | > 100 µM | > 100 µM | 18.3 | > 100 µM | > 100 µM | > 100 µM | > 100 µM | 2.26 | > 100 µM | 1.1 | > 100 µM | – | –
CCO[C@@H]1[C@@H]2C(=O)C(O)(C[C@H](C)[C@@H]2O)/C(C)=C\[C@@H]2[C@H](CC[C@@]1(O)CO)C2(C)C | – | 5.85 | – | > 100 µM | > 100 µM | 38.92 | > 100 µM | > 100 µM | > 100 µM | > 100 µM | 3.18 | > 100 µM | 1.5 | > 100 µM | – | –
CCN(CC)C(=O)O[C@@H]1[C@@H]2[C@@H](OC(=O)N(CC)CC)[C@]3(CC[C@H]4[C@@H](/C=C(\C)C(=O)[C@@]2(O)C[C@@H]1C)C4(C)C)CO3 | – | 1.71 | – | > 100 µM | > 100 µM | 10.62 | > 100 µM | > 100 µM | > 100 µM | > 100 µM | 3.54 | > 100 µM | 1.54 | > 100 µM | – | –
C/C1=C\[C@@H]2[C@H](CC[C@@](C)(O)[C@H](O)[C@H]3[C@@H](O)[C@@H](C)C[C@]3(O)[C@@H]1O)C2(C)C | – | 0.51 | – | > 100 µM | > 100 µM | 11.61 | > 100 µM | > 100 µM | > 100 µM | > 100 µM | 3.81 | > 100 µM | 1.02 | > 100 µM | – | –
CCC(=O)OC[C@]1(O)CC[C@H]2[C@@H](/C=C(\C)C(=O)[C@@]3(O)C[C@H](C)[C@H](OC(=O)CC)[C@@H]3[C@H]1O)C2(C)C | – | 1.16 | – | > 100 µM | > 100 µM | 2.07 | > 100 µM | > 100 µM | > 100 µM | > 100 µM | 2.25 | > 100 µM | 1.1 | > 100 µM | – | –
C/C1=C\[C@@H]2[C@H](CC[C@@](C)(O)[C@H](O)[C@H]3[C@@H](O)[C@@H](C)C[C@]3(O)[C@H]1O)C2(C)C | – | 0.54 | – | > 100 µM | > 100 µM | 0.59 | > 100 µM | > 100 µM | > 100 µM | > 100 µM | 1.11 | > 100 µM | 1 | > 100 µM | – | –
C/C1=C\[C@@H]2[C@H](CC[C@]3(CO3)[C@H](OC(=O)C34CC5CC(CC(C5)C3)C4)[C@H]3[C@@H](OC(=O)C45CC6CC(CC(C6)C4)C5)[C@@H](C)C[C@]3(O)C1=O)C2(C)C | – | 22.36 | – | > 50 µM | > 50 µM | 31.69 | > 50 µM | > 50 µM | 27.6 µM | > 50 µM | 1.64 | > 50 µM | 1.2 | > 50 µM | – | >1.81
C/C1=C\[C@@H]2[C@H](CC[C@]3(CO3)[C@H](OC(=O)c3ccco3)[C@H]3[C@@H](OC(=O)c4ccco4)[C@@H](C)C[C@]3(O)C1=O)C2(C)C | – | 6.09 | 0.053 | 24.8 µM | > 50 µM | 42.56 | > 50 µM | > 50 µM | 28.4 µM | > 50 µM | 5.5 | > 50 µM | 1.67 | 27.8 µM | <0.5 | 0.98
C/C1=C\[C@@H]2[C@H](CC[C@]3(CO3)[C@H](OC(=O)c3ccc(C(F)(F)F)cc3)[C@H]3[C@@H](OC(=O)c4ccc(C(F)(F)F)cc4)[C@@H](C)C[C@]3(O)C1=O)C2(C)C | – | 38.72 | – | > 100 µM | > 100 µM | 38.97 | > 100 µM | > 100 µM | > 100 µM | > 100 µM | 3.39 | > 100 µM | 2.52 | > 100 µM | – | –
COc1ccc(CCN(C)CCCC(C#N)(c2ccc(OC)c(OC)c2)C(C)C)cc1OC (centres undefined) | – | – | – | – | – | – | – | – | – | – | 8.95 | – | – | – | – | –
